Experimental data reported in doi:10.1101/2021.09.30.462449v1 (biorxiv, 2021).

Assays:
Assay in all cases: biochemical
Conditions in all cases: read-out: % inhibition mean (Z'Lyte)
[1] = biological target: FGFR2 (Homo sapiens, UniProt P21802)
[2] = biological target: SNF1LK2 (Homo sapiens, UniProt Q9H0K1)
[3] = biological target: PLK3 (Homo sapiens, UniProt Q9H4B4)
[4] = biological target: CSNK1G3 (CK1 gamma 3) (Homo sapiens, UniProt Q9Y6M4)
[5] = biological target: MAP4K5 (KHS1) (Homo sapiens, UniProt Q9Y4K4)
[6] = biological target: MARK2 (Homo sapiens, UniProt Q7KZI7)
[7] = biological target: MAPK9 (JNK2) (Homo sapiens, UniProt P45984)
[8] = biological target: CSNK1E (CK1 epsilon) R178C (Homo sapiens, UniProt P49674, R178C)
[9] = biological target: PDGFRA D842V (Homo sapiens, UniProt P16234, D842V)
[10] = biological target: PHKG2 (Homo sapiens, UniProt P15735)
[11] = biological target: EGFR (ErbB1) T790M (Homo sapiens, UniProt P00533, T790M)
[12] = biological target: AURKA (Aurora A) (Homo sapiens, UniProt O14965)
[13] = biological target: CHEK2 (CHK2) (Homo sapiens, UniProt O96017)
[14] = biological target: NEK4 (Homo sapiens, UniProt P51957)
[15] = biological target: FGFR4 (Homo sapiens, UniProt P22455)
[16] = biological target: ABL2 (Arg) (Homo sapiens, UniProt P42684)
[17] = biological target: MAPK1 (ERK2) (Homo sapiens, UniProt P28482)
[18] = biological target: PRKX (Homo sapiens, UniProt P51817)
[19] = biological target: EEF2K (Homo sapiens, UniProt O00418)
[20] = biological target: SGKL (SGK3) (Homo sapiens, UniProt Q96BR1)
[21] = biological target: PAK4 (Homo sapiens, UniProt O96013)
[22] = biological target: IGF1R (Homo sapiens, UniProt P08069)
[23] = biological target: ABL1 G250E (Homo sapiens, UniProt P00519, G250E)
[24] = biological target: KIT V560G (Homo sapiens, UniProt P10721, V560G)
[25] = biological target: PRKD2 (PKD2) (Homo sapiens, UniProt Q9BZL6)
[26] = biological target: FRK (PTK5) (Homo sapiens, UniProt P42685)
[27] = biological target: FRAP1 (mTOR) (Homo sapiens, UniProt P42345)
[28] = biological target: MET M1250T (Homo sapiens, UniProt P08581, M1250T)
[29] = biological target: SGK2 (Homo sapiens, UniProt Q9HBY8)

PAK4, sequence (O96013 whole entry): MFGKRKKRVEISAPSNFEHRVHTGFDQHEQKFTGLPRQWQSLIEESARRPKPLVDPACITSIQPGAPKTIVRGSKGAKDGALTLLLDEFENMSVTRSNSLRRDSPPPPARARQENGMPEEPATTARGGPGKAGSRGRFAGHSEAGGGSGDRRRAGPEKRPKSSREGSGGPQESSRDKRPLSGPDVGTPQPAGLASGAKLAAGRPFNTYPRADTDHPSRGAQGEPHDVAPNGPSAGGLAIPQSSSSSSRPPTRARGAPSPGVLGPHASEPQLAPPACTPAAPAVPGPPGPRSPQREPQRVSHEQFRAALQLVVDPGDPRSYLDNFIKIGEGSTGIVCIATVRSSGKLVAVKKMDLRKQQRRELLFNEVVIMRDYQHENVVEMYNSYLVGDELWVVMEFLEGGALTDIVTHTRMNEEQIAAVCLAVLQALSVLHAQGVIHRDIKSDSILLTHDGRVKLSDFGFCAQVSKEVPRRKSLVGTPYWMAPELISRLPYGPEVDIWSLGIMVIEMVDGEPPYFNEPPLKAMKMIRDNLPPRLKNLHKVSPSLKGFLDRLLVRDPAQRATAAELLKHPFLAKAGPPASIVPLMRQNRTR
EGFR (ErbB1) T790M, sequence (P00533 whole entry T790M): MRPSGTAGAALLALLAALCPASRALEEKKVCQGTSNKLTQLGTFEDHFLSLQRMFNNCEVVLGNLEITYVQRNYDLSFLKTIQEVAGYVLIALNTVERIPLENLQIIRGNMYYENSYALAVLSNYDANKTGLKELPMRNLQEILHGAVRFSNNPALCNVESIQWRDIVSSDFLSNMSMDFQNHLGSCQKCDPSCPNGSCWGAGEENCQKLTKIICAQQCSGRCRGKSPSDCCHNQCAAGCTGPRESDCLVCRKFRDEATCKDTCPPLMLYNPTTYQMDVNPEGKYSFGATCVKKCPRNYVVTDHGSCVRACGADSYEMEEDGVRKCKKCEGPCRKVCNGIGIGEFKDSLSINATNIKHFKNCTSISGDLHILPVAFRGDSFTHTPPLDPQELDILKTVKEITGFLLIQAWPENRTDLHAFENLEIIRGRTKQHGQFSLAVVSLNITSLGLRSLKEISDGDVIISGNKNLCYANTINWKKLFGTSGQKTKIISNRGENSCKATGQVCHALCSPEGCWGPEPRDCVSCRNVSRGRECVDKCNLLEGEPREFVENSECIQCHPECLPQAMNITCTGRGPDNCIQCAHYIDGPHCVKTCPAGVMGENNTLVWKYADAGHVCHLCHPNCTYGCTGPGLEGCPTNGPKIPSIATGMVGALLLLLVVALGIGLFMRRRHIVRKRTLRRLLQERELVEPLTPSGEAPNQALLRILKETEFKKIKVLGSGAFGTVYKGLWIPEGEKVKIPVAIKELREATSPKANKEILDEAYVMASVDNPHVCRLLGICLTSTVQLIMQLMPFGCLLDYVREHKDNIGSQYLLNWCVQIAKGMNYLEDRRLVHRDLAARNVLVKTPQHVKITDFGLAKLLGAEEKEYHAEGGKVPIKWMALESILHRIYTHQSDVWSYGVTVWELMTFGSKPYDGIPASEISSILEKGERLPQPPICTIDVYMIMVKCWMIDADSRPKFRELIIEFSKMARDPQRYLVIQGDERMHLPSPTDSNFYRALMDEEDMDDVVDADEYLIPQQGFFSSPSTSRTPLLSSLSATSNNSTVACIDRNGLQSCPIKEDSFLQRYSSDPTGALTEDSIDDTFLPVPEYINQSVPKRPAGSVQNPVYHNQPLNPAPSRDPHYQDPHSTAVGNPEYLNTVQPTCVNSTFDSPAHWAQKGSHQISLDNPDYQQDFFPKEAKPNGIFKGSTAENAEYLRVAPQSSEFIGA
SNF1LK2, sequence (Q9H0K1 whole entry): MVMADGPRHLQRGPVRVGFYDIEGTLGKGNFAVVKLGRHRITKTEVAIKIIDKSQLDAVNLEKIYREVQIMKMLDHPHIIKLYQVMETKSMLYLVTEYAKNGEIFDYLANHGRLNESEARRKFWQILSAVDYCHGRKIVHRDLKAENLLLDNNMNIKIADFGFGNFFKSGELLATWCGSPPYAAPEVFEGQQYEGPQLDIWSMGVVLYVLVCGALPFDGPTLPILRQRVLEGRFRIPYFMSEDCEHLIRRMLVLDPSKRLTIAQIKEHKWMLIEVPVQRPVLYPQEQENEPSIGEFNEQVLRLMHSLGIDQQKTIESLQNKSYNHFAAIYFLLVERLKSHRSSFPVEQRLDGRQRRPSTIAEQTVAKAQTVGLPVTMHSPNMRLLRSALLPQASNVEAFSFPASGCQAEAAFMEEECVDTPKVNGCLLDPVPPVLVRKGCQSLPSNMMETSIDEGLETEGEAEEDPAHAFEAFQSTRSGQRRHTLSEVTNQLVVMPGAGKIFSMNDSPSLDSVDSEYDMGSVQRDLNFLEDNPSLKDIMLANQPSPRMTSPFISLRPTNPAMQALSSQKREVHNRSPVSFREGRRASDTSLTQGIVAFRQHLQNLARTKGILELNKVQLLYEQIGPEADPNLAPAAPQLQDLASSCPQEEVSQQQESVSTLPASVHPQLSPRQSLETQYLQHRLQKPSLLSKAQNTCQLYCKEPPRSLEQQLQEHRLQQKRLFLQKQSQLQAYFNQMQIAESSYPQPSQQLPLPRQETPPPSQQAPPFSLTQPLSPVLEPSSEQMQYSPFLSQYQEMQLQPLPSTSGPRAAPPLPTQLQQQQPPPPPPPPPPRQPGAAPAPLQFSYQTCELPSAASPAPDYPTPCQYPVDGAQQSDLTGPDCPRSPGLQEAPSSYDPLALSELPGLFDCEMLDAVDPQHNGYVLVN
FGFR4, sequence (P22455 whole entry): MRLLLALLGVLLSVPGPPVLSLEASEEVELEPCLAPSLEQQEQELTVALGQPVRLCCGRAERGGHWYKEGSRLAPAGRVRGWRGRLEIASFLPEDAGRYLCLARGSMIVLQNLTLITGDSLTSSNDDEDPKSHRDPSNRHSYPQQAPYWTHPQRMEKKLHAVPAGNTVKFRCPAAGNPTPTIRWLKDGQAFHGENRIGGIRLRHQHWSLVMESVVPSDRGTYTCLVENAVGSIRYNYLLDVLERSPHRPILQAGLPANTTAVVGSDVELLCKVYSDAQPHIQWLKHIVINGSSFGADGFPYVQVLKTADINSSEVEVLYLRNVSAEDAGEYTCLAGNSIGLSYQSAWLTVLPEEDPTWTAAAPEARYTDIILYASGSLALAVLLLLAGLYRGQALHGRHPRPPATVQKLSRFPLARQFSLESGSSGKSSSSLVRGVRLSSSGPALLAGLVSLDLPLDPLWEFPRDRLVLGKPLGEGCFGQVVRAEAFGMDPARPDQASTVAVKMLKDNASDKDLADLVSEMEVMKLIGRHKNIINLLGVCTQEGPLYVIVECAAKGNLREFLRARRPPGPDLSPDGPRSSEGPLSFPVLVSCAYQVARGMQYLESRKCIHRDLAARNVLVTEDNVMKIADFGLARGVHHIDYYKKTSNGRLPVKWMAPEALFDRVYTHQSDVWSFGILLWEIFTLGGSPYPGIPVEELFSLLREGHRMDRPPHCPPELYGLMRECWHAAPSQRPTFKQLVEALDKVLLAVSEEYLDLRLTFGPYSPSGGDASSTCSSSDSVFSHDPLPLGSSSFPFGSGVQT
CHEK2 (CHK2), sequence (O96017 whole entry): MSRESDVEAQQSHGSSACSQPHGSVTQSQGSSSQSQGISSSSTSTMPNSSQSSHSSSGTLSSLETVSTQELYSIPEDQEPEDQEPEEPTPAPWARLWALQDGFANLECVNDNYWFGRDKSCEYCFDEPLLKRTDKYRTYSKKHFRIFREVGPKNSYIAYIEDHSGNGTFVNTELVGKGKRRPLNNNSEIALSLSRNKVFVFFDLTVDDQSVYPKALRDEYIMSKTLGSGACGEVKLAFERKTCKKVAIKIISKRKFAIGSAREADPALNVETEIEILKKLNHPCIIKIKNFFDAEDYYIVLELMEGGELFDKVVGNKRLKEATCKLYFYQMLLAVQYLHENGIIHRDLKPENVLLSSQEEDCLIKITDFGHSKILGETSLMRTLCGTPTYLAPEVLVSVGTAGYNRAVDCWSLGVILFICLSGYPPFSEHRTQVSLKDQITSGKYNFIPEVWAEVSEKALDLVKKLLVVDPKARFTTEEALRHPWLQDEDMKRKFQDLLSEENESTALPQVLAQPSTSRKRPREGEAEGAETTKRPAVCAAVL
PHKG2, sequence (P15735 whole entry): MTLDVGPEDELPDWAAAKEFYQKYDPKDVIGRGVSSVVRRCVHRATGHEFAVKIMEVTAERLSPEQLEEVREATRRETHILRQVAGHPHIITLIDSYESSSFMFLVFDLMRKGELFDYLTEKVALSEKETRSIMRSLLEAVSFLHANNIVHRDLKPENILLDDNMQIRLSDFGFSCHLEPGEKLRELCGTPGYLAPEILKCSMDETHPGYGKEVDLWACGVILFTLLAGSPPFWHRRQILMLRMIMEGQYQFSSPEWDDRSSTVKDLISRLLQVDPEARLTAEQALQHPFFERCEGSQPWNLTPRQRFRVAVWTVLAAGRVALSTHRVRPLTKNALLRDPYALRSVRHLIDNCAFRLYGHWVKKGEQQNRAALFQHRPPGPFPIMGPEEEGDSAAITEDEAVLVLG
FRK (PTK5), sequence (P42685 whole entry): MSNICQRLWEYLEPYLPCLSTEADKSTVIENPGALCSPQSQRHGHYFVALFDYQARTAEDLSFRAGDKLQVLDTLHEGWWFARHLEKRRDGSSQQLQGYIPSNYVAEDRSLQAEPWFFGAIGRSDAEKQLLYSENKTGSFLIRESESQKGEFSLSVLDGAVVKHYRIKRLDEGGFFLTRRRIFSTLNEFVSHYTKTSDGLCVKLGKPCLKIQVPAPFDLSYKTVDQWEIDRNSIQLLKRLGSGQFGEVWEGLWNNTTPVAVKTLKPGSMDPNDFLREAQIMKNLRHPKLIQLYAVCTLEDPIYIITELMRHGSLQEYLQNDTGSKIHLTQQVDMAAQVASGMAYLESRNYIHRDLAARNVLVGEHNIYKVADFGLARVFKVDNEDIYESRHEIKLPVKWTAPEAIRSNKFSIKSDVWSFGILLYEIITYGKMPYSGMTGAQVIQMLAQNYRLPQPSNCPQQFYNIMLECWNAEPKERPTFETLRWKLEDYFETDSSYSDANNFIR

Structure (SMILES): COc1ccc2nc3cc(Cl)ccc3c(Nc3cc(CN4CCCC4)c(O)c(CN4CCCC4)c3)c2n1 [Pyronaridine, 4-[(7-Chloro-2-methoxybenzo[b][1,5]naphthyridin-10-yl)amino]-2,6-bis(1-pyrrolidinylmethyl)phenol phosphate (1:4)]
- inhibition at 1 µM [1]: -1%
- inhibition at 1 µM [2]: -5%
- inhibition at 1 µM [3]: 28%
- inhibition at 1 µM [4]: 2%
- inhibition at 1 µM [5]: 5%
- inhibition at 1 µM [6]: 6%
- inhibition at 1 µM [7]: -15%
- inhibition at 1 µM [8]: 1%
- inhibition at 1 µM [9]: -1%
- inhibition at 1 µM [10]: -2%
- inhibition at 1 µM [11]: 2%
- inhibition at 1 µM [12]: 9%
- inhibition at 1 µM [13]: 0%
- inhibition at 1 µM [14]: 4%
- inhibition at 1 µM [15]: -14%
- inhibition at 1 µM [16]: 2%
- inhibition at 1 µM [17]: -1%
- inhibition at 1 µM [18]: 5%
- inhibition at 1 µM [19]: 1%
- inhibition at 1 µM [20]: 0%
- inhibition at 1 µM [21]: 3%
- inhibition at 1 µM [22]: 6%
- inhibition at 1 µM [23]: 1%
- inhibition at 1 µM [24]: -5%
- inhibition at 1 µM [25]: -4%
- inhibition at 1 µM [26]: -2%
- inhibition at 1 µM [27]: 1%
- inhibition at 1 µM [28]: 0%
- inhibition at 1 µM [29]: 3%
